In ChEMBL document CHEMBL1149146, “Synthesis and biological evaluation of new 1,2-dihydro-4-hydroxy-2-oxo-3-quinolinecarboxamides for treatment of autoimmune disorders: structure-activity relationship” (2004):
Calls of active or inactive are those of the source.

What was measured:
Mus musculus [1] = assay: Inhibition of acute experimental autoimmune encephalomyelitis in SJL/N mice by 5 mg/kg/day p.o.; type: functional; conditions: route oral
Mus musculus [2] = assay: Inhibition of acute experimental autoimmune encephalomyelitis in SJL/N mice by 0.2 mg/kg/day p.o.; type: functional; conditions: route oral
Mus musculus [3] = assay: Inhibition of acute experimental autoimmune encephalomyelitis (aEAE) induced in SJL/N mice at a dose of 1 mg/kg/day, (po); type: functional
Mus musculus [4] = assay: Inhibition of acute experimental autoimmune encephalomyelitis (aEAE) induced in SJL/N mice at a dose of 1 mg/kg/day, (po) was determined; Inactive; type: functional
Mus musculus [5] = assay: Inhibition of acute experimental autoimmune encephalomyelitis (aEAE) induced in SJL/N mice at a dose of 5 mg/kg/day, (po) was determined; Inactive; type: functional
Mus musculus [6] = assay: Inhibition of acute experimental autoimmune encephalomyelitis in SJL/N mice by 1 mg/kg/day p.o./s.c.; type: functional; conditions: route oral
Mus musculus [7] = assay: Inhibition of acute experimental autoimmune encephalomyelitis in SJL/N mice by 5 mg/kg/day p.o./s.c.; type: functional; conditions: route oral
Mus musculus [8] = assay: Inhibition of acute experimental autoimmune encephalomyelitis (aEAE) induced in SJL/N mice at a dose of 5 mg/kg/day, (sc) was determined; Inactive; type: functional
Mus musculus [9] = assay: Inhibition of acute experimental autoimmune encephalomyelitis in SJL/N mice by 0.2 mg/kg/day p.o./s.c.; type: functional; conditions: po
Mus musculus [10] = assay: Inhibition of acute experimental autoimmune encephalomyelitis (aEAE) induced in SJL/N mice at a dose of 5 mg/kg/day, (sc) was determined; type: functional
Mus musculus [11] = assay: Inhibition of acute experimental autoimmune encephalomyelitis (aEAE) induced in SJL/N mice at a dose of 0.2 mg/kg/day, (po) was determined; Inactive; type: functional
Mus musculus [12] = assay: Inhibition of acute experimental autoimmune encephalomyelitis (aEAE) induced in SJL/N mice at a dose of 0.2 mg/kg/day, (po) was determined; Inactive <35% inhibition; type: functional, organism-based

Work on COc1cccc2c1c(O)c(C(=O)N(C)c1cccc(Cl)c1)c(=O)n2C yielded an inhibition in vivo at 5 mg/kg/day (Mus musculus [1]) of 71%, an inhibition in vivo at 0.2 mg/kg/day (Mus musculus [2]) of 54% and an inhibition in vivo at 1 mg/kg/day (Mus musculus [3]) of 85%.
For CCc1ccc2c(c1)c(O)c(C(=O)N(CC)c1ccccc1)c(=O)n2C, the inhibition in vivo at 1 mg/kg/day (Mus musculus [4]) was < 35% and the inhibition in vivo at 5 mg/kg/day (Mus musculus [5]) was < 35%.
In the case of COc1cccc2c1c(O)c(C(=O)N(C)c1c(F)cccc1F)c(=O)n2C, the inhibition in vivo at 0.2 mg/kg/day (Mus musculus [2]) is reported as 28% and the inhibition in vivo at 1 mg/kg/day (Mus musculus [3]) is reported as 43%.
Molecule CN(C(=O)c1c(O)c2cc(F)ccc2n(C)c1=O)c1ccc(F)cc1 has an inhibition in vivo at 1 mg/kg/day (Mus musculus [6]) of 77% and an inhibition in vivo at 5 mg/kg/day (Mus musculus [7]) of 93%.
CCN(C(=O)c1c(O)c2c(C(F)(F)F)cccc2n(C)c1=O)c1ccccc1 was tested, and the inhibition in vivo at 0.2 mg/kg/day (Mus musculus [2]) was 49% and the inhibition in vivo at 1 mg/kg/day (Mus musculus [3]) was 80%.
With CSc1cccc2c1c(O)c(C(=O)N(C)c1ccccc1)c(=O)n2C the inhibition in vivo at 5 mg/kg/day (Mus musculus [1]) was 100%, the inhibition in vivo at 0.2 mg/kg/day (Mus musculus [2]) was 94% and the inhibition in vivo at 1 mg/kg/day (Mus musculus [3]) was 100%.
With CN(C(=O)c1c(O)c2ccc(Cl)cc2n(C)c1=O)c1ccccc1 the inhibition in vivo at 5 mg/kg/day (Mus musculus [8]) was < 35%.
COc1cccc2c1c(O)c(C(=O)N(C)c1ccccc1)c(=O)n2C was tested, and the inhibition in vivo at 1 mg/kg/day (Mus musculus [6]) was 95%, the inhibition in vivo at 0.2 mg/kg/day (Mus musculus [9]) was 79% and the inhibition in vivo at 5 mg/kg/day (Mus musculus [7]) was 96%.
Work on COc1cccc2c1c(O)c(C(=O)N(C)c1cc(F)ccc1F)c(=O)n2C yielded an inhibition in vivo at 5 mg/kg/day (Mus musculus [1]) of 95%, an inhibition in vivo at 0.2 mg/kg/day (Mus musculus [2]) of 62% and an inhibition in vivo at 1 mg/kg/day (Mus musculus [3]) of 90%.
Molecule CN(C(=O)c1c(O)c2cc(C(F)(F)F)ccc2n(C)c1=O)c1ccccc1 has an inhibition in vivo at 1 mg/kg/day (Mus musculus [6]) of 100%, an inhibition in vivo at 0.2 mg/kg/day (Mus musculus [9]) of 67% and an inhibition in vivo at 5 mg/kg/day (Mus musculus [7]) of 100%.
In the case of CCOc1ccc2c(c1)c(O)c(C(=O)N(C)c1ccc(F)cc1)c(=O)n2C, the inhibition in vivo at 5 mg/kg/day (Mus musculus [10]) is reported as 53%.
In the case of COc1ccc(N(C)C(=O)c2c(O)c3c(OC)cccc3n(C)c2=O)cc1, the inhibition in vivo at 0.2 mg/kg/day (Mus musculus [2]) is reported as 78% and the inhibition in vivo at 1 mg/kg/day (Mus musculus [3]) is reported as 84%.
For CC(C)N(C(=O)c1c(O)c2c(Cl)cccc2n(C)c1=O)c1ccccc1, the inhibition in vivo at 5 mg/kg/day (Mus musculus [1]) was 70%, the inhibition in vivo at 0.2 mg/kg/day (Mus musculus [11]) was < 35% and the inhibition in vivo at 1 mg/kg/day (Mus musculus [3]) was 54%.
CCN(C(=O)c1c(O)c2c(F)cccc2n(C)c1=O)c1ccccc1 gave an inhibition in vivo at 1 mg/kg/day (Mus musculus [3]) of 60%.
Molecule CN(C(=O)c1c(O)c2ccc(C(F)(F)F)cc2n(C)c1=O)c1ccc(F)cc1 has an inhibition in vivo at 5 mg/kg/day (Mus musculus [10]) of 35%.
For COc1cccc2c1c(O)c(C(=O)N(C)c1ccc(F)cc1)c(=O)n2C, the inhibition in vivo at 0.2 mg/kg/day (Mus musculus [9]) was 92% and the inhibition in vivo at 5 mg/kg/day (Mus musculus [7]) was 93%.
In the case of COc1cccc2c1c(O)c(C(=O)N(C)c1ccccc1Cl)c(=O)n2C, the inhibition in vivo at 5 mg/kg/day (Mus musculus [1]) is reported as 68%, the inhibition in vivo at 0.2 mg/kg/day (Mus musculus [11]) is reported as < 35% and the inhibition in vivo at 1 mg/kg/day (Mus musculus [3]) is reported as 50%.
In the case of CN(C(=O)c1c(O)c2c(C(F)(F)F)cccc2n(C)c1=O)c1ccccc1, the inhibition in vivo at 5 mg/kg/day (Mus musculus [1]) is reported as 100% and the inhibition in vivo at 1 mg/kg/day (Mus musculus [3]) is reported as 99%.
With CCOc1cccc2c1c(O)c(C(=O)N(C)c1ccccc1)c(=O)n2C the inhibition in vivo at 5 mg/kg/day (Mus musculus [1]) was 76%, the inhibition in vivo at 0.2 mg/kg/day (Mus musculus [2]) was 44% and the inhibition in vivo at 1 mg/kg/day (Mus musculus [3]) was 40%.
With CCN(C(=O)c1c(O)c2c(C)cccc2n(C)c1=O)c1ccccc1 the inhibition in vivo at 5 mg/kg/day (Mus musculus [1]) was 85%, the inhibition (Mus musculus [12]) was “inactive” and the inhibition in vivo at 1 mg/kg/day (Mus musculus [3]) was 65%.
In the case of COc1cccc2c(O)c(C(=O)N(C)c3ccccc3)c(=O)n(C)c12, the inhibition in vivo at 5 mg/kg/day (Mus musculus [8]) is reported as < 35%.
In the case of COc1ccc2c(O)c(C(=O)N(C)c3ccccc3)c(=O)n(C)c2c1, the inhibition in vivo at 5 mg/kg/day (Mus musculus [8]) is reported as < 35%.
With COc1cccc2c1c(O)c(C(=O)N(C)c1cccc(F)c1F)c(=O)n2C the inhibition in vivo at 1 mg/kg/day (Mus musculus [4]) was < 35% and the inhibition in vivo at 0.2 mg/kg/day (Mus musculus [11]) was < 35%.
In the case of CCN(C(=O)c1c(O)c2c(SC)cccc2n(C)c1=O)c1ccccc1, the inhibition in vivo at 5 mg/kg/day (Mus musculus [1]) is reported as 99%, the inhibition in vivo at 0.2 mg/kg/day (Mus musculus [2]) is reported as 51% and the inhibition in vivo at 1 mg/kg/day (Mus musculus [3]) is reported as 73%.
Cc1cccc2c1c(O)c(C(=O)N(C)c1ccccc1)c(=O)n2C showed an inhibition in vivo at 1 mg/kg/day (Mus musculus [6]) of 100%, an inhibition in vivo at 0.2 mg/kg/day (Mus musculus [9]) of 95% and an inhibition in vivo at 5 mg/kg/day (Mus musculus [7]) of 97%.
Cc1ccc2c(O)c(C(=O)N(C)c3ccccc3)c(=O)n(C)c2c1 gave an inhibition in vivo at 5 mg/kg/day (Mus musculus [10]) of 53%.
COc1ccc2c(c1)c(O)c(C(=O)N(C)c1ccccc1)c(=O)n2C gave an inhibition in vivo at 1 mg/kg/day (Mus musculus [6]) of 100%, an inhibition in vivo at 0.2 mg/kg/day (Mus musculus [9]) of 83% and an inhibition in vivo at 5 mg/kg/day (Mus musculus [7]) of 100%.
For CCN(C(=O)c1c(O)c2c(Cl)cccc2n(C)c1=O)c1ccccc1 [LAQUINIMOD], the inhibition in vivo at 1 mg/kg/day (Mus musculus [6]) was 92%, the inhibition in vivo at 0.2 mg/kg/day (Mus musculus [9]) was 66% and the inhibition in vivo at 5 mg/kg/day (Mus musculus [7]) was 96%.
